Assay results taken from patent US11389497B2, “Pharmaceutical composition for treating cancer” (Institute of Advance Sciences, Inc., priority 2019, dated 2022).
Like-named read-outs stand apart in the source and are kept apart here.

Legend:
[1] = tested on: lysine acetyltransferase 7 (KAT 7); test: Immunoblot of nuclear fraction for histone acetyl transferases; format: cell-based, human; conditions: nuclear extract of ST88-14 cells, OSHP-1 50-300 ng/ml, 48 h
[2] = tested on: ST88-14 cells; test: Real-time quantitative PCR of tumorigenic genes in ST88-14 cells; format: cell-based, human; conditions: 48 h, normalized by GAPDH
Method: Effect of OSHP-1 on the expression of tumorigenic genes. To ascertain whether OSHP-1 decreased the proliferation of ST 88-14 cells, by decreasing the expression of tumorigenic genes, total RNA was isolated from the ST88-14 cells as well as normal Human Schwann cells treated with varying concentrations of OSHP-1 (for 48 h) mentioned above. The RNA was reverse transcribed to cDNA and subjected to quantitative PCR using reverse and forward primers of FAX2, FOXN4, IGF2 TLXI genes (Lee et 2014), and was normalized by the expression of GAPDH (FIG. 5A).

[3] = tested on: HDAC2; test: Immunoblot of nuclear fraction for NuRD components; format: cell-based, human; conditions: nuclear extract of ST88-14 cells, OSHP-1 50-300 ng/ml, 48 h
Text: CBP, KAT2A, KAT7 acetyl transferases and CHD4, MTA2, MBD2/3, HDAC2, GATA 2 (NuRD) components and b-actin antibodies.

[4] = tested on: ST88-14 cells; test: Scratch assay in ST88-14 cells; format: cell-based, human
Text: FIG. 7C illustrates a report on a scratch assay protocol performed using ST88-14 cells in the absence or presence of OSHP-1, AA, RA, CA, in accordance with an exemplary embodiment of the present disclosure.
(§1) Effect of OSHP-1 on anchorage independent growth or metastasis. To determine whether OSHP-1 and its individual components can block the anchorage independent growth of ST-8814 cells, and Normal Human Schwann by subjecting the cells to Soft Agar colony formation assays in the absence and presence of OSHP-1, AA, RA, CA and mixture of three, and the colonies were counted manual. […] Additionally, we also tested whether OSHP-1 and AA, RA, and CA affect the invasiveness of human metastatic melanoma.

[5] = tested on: ST88-14 cells; test: Soft Agar colony formation assay (anchorage independent growth); format: cell-based, human; conditions: colonies counted manually
Text: FIG. 7A illustrates a report on effect of OSHP-1 on anchorage independent growth or metastasis, in accordance with an exemplary embodiment of the present disclosure: To determine whether OSHP-1 and its individual components can block the anchorage independent growth of ST88-14 cells, and Normal Human Schwann Cells, by subjecting the cells to Soft Agar colony formation assays the absence and presence of (A) OSHP-1.
FIG. 7B illustrates a report on AA, RA, CA and mixture of three, and the colonies were counted manually, in accordance with an exemplary embodiment of the present disclosure.
as §1

[6] = tested on: human metastatic melanoma; test: Scratch assay in human metastatic melanoma; format: cell-based
[7] = tested on: ST88-14 cells; test: MTS cell viability / proliferation assay; format: cell-based, human; conditions: OSHP-1 50-300 ng/ml, 0-72 h
Method: FIG. 4 illustrates a report on cell Viability Assays using the MTS Assay Kit (Colorimetric) (ab 197010) Cell proliferation, in accordance with an exemplary embodiment of the present disclosure. As shown, viability and cytotoxicity was assessed on cells. Cells were treated with the appropriate concentrations of OSHP-1 for 24, 48 and 72 h.
Effect of OSHP-1 on Cell proliferation: We performed MTS assays using cells and treated with increasing concentrations of OSHP-1 (50-300 ng/ml) for 0-72 h.

lysine acetyl transferase KAT 7 activity / levels [1] | Compound | FAX2 (PAX2) expression [2] | FOXN4 expression [2] | IGF2 expression [2] | HDAC2 activity / levels [3] | TLXI (TLX2) expression [2] | invasion and metastasis in scratch assay [4] | invasion and metastasis in scratch assay ([4]; listed as RA) | anchorage independent growth [5] | migration of cells in scratch assay [6] | viability and proliferation of ST88-14 cells [7]
decreases | caffeoylquinic acid | down-regulated | down-regulated | down-regulated |  |  |  |  |  |  | 
decreased | O=C1O[C@H]([C@@H](O)CO)C(O)=C1O [ascorbic acid] | down-regulated |  | down-regulated | increased | down-regulated |  |  |  |  | 
 | O=C(/C=C/c1ccc(O)c(O)c1)O[C@H](Cc1ccc(O)c(O)c1)C(=O)O [rosmarinic acid] | down-regulated |  | down-regulated |  | down-regulated | decreased metastasis | responsible for the blocking of anchorage independent growth, invasion and metastasis of MPNSTs | responsible for the blocking of anchorage independent growth | the one contributing to this property | 
 | CN1c2c(nc(N)[nH]c2=O)NCC1CNc1ccc(C(=O)N[C@@H](CCC(=O)O)C(=O)O)cc1 (some centres unmarked) [MTHF, 5-methyl tetra hydro folate] |  |  |  |  |  |  |  |  |  | increases the cell proliferation
